The subject of assay [1] is TXA2. Description: TXA2 antagonist properties (general statement, standard tests). The conditions noted are these: in words. From the text: (§1) As stated earlier, the compound of formula I is an antagonist of one or more of the actions of TXA2, for example certain of its actions on blood platelets, the vasculature and/or the lung.
For assay [2], the system named is U46619 induced bronchoconstriction. The experiment in a line: Test (c): bronchoconstriction test, Konzett-Rossler anaesthetised guinea-pig model. It counts as in vivo. The conditions noted are these: 2 hours after oral dosing at 0.005 mg/kg; ratio of U46619 concentration required to cause 50% bronchoconstriction in presence and absence of test compound. An excerpt: (c) a bronchoconstriction test involving measuring the inhibition by a test compound of the bronchoconstriction induced in the Konzett-Rossler, anaesthetised guinea-pig model (as modified by Collier and James, Brit. J. Pharmacol., 1967, 30, 283-307) by intravenous administration of the TXA2 mimetic agent, U46619 and involving:
(i) obtaining a cumulative dose-response curve to U46619 induced bronchoconstriction by intravenous administration of constant volumes of increasing concentrations of U46619 (0.2-4 ug/kg) in physiological saline solution and expressing bronchoconstriction as the maximum of that theoretically obtainable with no air flow to the test animal;
(ii) generating a cumulative dose-response curve to U46619 induced bronchoconstriction at 30 minute intervals for 3 hours after oral dosing of test compound; and
(iii) calculating a dose-ratio for the test compound (that is the ratio of concentration of U46619 required to cause 50% bronchoconstriction in the presence and absence of test compound) indicating the potency of TXA2 antagonism.

In assay [3] the test system is U46619 induced hypertension. The experiment in a line: Test (d): U46619 induced hypertension in anaesthetised rats. The class given is in vivo, rat (Alderley Park strain). As to conditions: 1 hour after an oral dose of 0.05 mg/kg. The method, then:
(d) Male rats (Alderley Park strain) are anaesthetised with sodium pentobarbital and blood pressure is monitored at the carotid artery. The TXA2 mimetic agent U46619 is administered intravenously at 5 μg/kg via the jugular vein to produce a 20-30 mm Hg (2640-3970 pascal) increase in systolic blood pressure. The procedure is repeated twice to establish reproducibility of the effect. A test compound is then administered either intravenously (via the jugular vein) or orally (via a cannula) directly into the stomach and the animal is challenged with U46619, five minutes after dosing with test compound and then successively every ten minutes until the hypertensive effect of U46619 is no longer blocked.

Assay [4] addresses T1, U46619 stimulated platelet aggregation (Homo sapiens, UniProt P21731).
T1 construct: aggregating human, citrated, platelet-rich plasma; endogenous in cells; host or cells: human platelets in citrated platelet-rich plasma
T1 sequence (P21731 1-343): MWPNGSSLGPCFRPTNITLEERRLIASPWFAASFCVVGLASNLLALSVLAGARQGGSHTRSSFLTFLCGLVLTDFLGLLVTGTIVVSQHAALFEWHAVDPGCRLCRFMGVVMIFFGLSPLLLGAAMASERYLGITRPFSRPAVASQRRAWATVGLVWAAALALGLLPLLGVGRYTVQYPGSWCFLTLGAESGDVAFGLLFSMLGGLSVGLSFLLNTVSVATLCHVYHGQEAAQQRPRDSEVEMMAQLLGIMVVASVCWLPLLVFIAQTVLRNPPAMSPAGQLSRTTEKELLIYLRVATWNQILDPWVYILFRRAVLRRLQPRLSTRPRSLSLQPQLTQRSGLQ
Description: Test (b): blood platelet aggregation test (Born), human citrated platelet-rich plasma. The class given is cell-based. As to conditions: averaged over several concentrations. From the text:
(b) a blood platelet aggregation test based on that described by Born (Nature, 1962, 194, 927-929) and involving:
(i) aggregating human, citrated, platelet-rich plasma by addition of the TXA2 mimetic agent U46619 so that a dose-response curve is generated;
(ii) generating a dose-response curve for U46619 stimulated platelet aggregation in the presence of increasing amounts of test compound (generally in the range 10^-5 M to 10^-10 M); and
(iii) calculating a KB value indicating potency of TXA2 antagonism for the test compound, averaged over several concentrations, from the calculated 50% response value for U46619 aggregation in the presence and absence of test compound; and […]

Assay [5] deals with TXA2. Description: Test (a): rabbit aortal strip model (Piper and Vane). The class given is cell-based. The conditions noted are these: agonist TXA2 or U46619. The method, then:
as §1
(a) The rabbit aortal strip model devised by Piper and Vane (Nature, 1969, 223, 29-35) using as agonist a freshly prepared sample of TXA2, generated by addition of arachidonic acid (25 μg) to citrated, platelet rich rabbit plasma (250 μl) and allowing the mixture to aggregate fully over 90 seconds before use; alternatively the TXA2 mimetic agent known as U46619 (described by R. L. Jones et alia in "Chemistry, Biochemistry and Pharmacological Activity of Prostanoids" edited by S. M. Roberts and F. Scheinmann, at page 211; Pergamon Press, 1979) may be used as the agonist;

Where only a bound is given, the exact number is not on record here.

Take `COc1ccccc1[C@H]1O[C@@H](C(F)(F)F)OC[C@H]1C/C=C\CCC(=O)O` (relative stereo) [4(Z)-6-([2,4,5-cis]-4-o-methoxyphenyl-2-trifluoromethyl-1,3-dioxan-5-yl)hexenoic acid]: the TXA2 antagonist properties result in assay [1] is “also possess TXA2 antagonist properties”.
Take `O=C(O)CCC/C=C\C[C@@H]1CO[C@H](C(F)(F)F)O[C@@H]1c1ccccc1` (relative stereo) [5(Z)-7-([2,4,5-cis]-4-phenyl-2-trifluoromethyl-1,3-dioxan-5-yl)heptenoic acid, reference compound]: the TXA2 antagonist properties result in assay [1] is “significantly lower TXA2 antagonist properties”.
In general, pA2 refers to the negative logarithm of the molar antagonist concentration that doubles the agonist concentration needed for the same response. Low readings indicate lower antagonist potency, high ones higher antagonist potency. Consider `O=C(O)CC/C=C\C[C@@H]1CO[C@H](C(F)(F)F)O[C@@H]1c1ccccc1O` (relative stereo) [compound of formula I, 4(Z)-6-([2,4,5-cis]-4-o-hydroxyphenyl-2-trifluoromethyl-1,3-dioxan-5-yl)hexenoic acid], for which the TXA2 antagonist properties entry in assay [1] is “unexpectedly superior TXA2 antagonist properties”. Also, in assay [2], the dose ratio is reported as over 40. Further, in assay [3], the “inhibition of U46619 induced hypertension” value is over 60%. The Kb in assay [4] came out at 0.0132 µM. Moreover, in assay [5], the pA2 is listed as 7.58±0.05.

These data come from US4902712A, “Fluoroalkane derivatives” (Imperial Chemical Industries plc, priority 1985, dated 1990).
